Results on 7 molecules are retold here after article PMC8191290, “Substrate specificities and reaction kinetics of the yeast oligosaccharyltransferase isoforms” (The Journal of Biological Chemistry, 2021).

Assay [1] concerns the target T1, OST3 complex (Saccharomyces cerevisiae, UniProt P39007).
T1 construct: were purified separately from strains expressing only one type of complex; made in house; host or cells: Saccharomyces cerevisiae, BY4742-derived strain ost6::LEU2MX6 OST4-1D4::kanMX6 YEp352-OST3
As to the kind of experiment: In vitro glycosylation assay, kinetic parameters for synthetic LLOs, OST3 complex. It counts as biochemical. Conditions: OST3 complex, under the tested conditions. The source says:
Synthetic LLO substrates all have two GlcNAcs as the sugar moiety, followed by pyrophosphate and lipid moieties (−R) of variable stereochemistry and length, denoted by the carbon chain length. C10, (S)-citronellyl; C15, farnesyl; C20, (S)-citronellylneryl; C25, (S)-citronellylfarnesyl; C90, represents the natural yeast dolichol lipid tail structure where n = 15. Figure modified from Ramirez et al. 2017 ([42]). B, quantification of kinetic parameters for the synthetic LLOs. Reactions were performed with 0.1 μM purified OST3 complex, 25 μM peptide TAMRA-YANATS, and varying concentrations of the different synthetic LLOs. Glycopeptide product was measured by UPLC and turnover rates were determined from the linear initial phase of the reaction. The mean of three reactions is shown and the data were fitted by nonlinear regression according to the Michaelis–Menten formula (R^2 = 0.9842 (LLO C15), 0.9685 (LLO C20), 0.9261 (LLO C25)) using Prism. Error bars indicate standard deviations from the mean (n = 3).
(§1) Concentrations of reactive LLO analogs were determined by in vitro glycosylation (see below) by titrating varying amounts of LLO against a known amount of fluorescently labeled peptide. Concentrations of nonreactive LLO analogs were determined by in vitro glycosylation by titrating varying amounts of nonreactive LLO while using known amounts of both fluorescently labeled peptide and active LLO analog.
Reactions were performed in a total volume of 10 μl containing the specified amount of TAMRA-labeled peptide, synthetic LLO analog, 10 mM MnCl2, and purified OST after size-exclusion chromatography in purification buffer (50 mM Hepes, pH 7.5, 150 mM NaCl, 1 mM MgCl2, 1 mM MnCl2, 10% (v/v) glycerol, 0.03% (w/v) DDM, and 0.006% (w/v) CHS). The concentration of OST was calculated using the molecular weight of 280 kDa. The reaction mixture was preincubated at 30 °C for 5 min before adding the peptide to start the reaction that proceeded at 30 °C. Time points were taken such that the reaction was in the linear phase. […]
(§2) Samples were analyzed by reverse-phase chromatography using a UPLC Dionex UltiMate 3000 with an Accucore 150-C18 100 × 2.1 mm 2.6 μm column (Thermo Fisher Scientific). One microliter sample (2 pmol of peptide) was injected and measured by isocratic elution using a certain proportion of ACN (15% ACN for peptide TAMRA-DANYTK; 20% ACN for peptide TAMRA-YANATS) in 10 mM KPO4, pH 8.0 buffer so that the glycopeptide and peptide are fully separated and elute within 3 min at a constant flow rate of 0.7 ml/min, with a column temperature of 45 °C. The peptide and glycopeptide were detected through TAMRA fluorescence (excitation wavelength: 546 nm; emission wavelength: 579 nm).
The UPLC profiles were analyzed by integrating the peaks corresponding to the glycopeptide and peptide using Chromeleon 7 (Dionex) and calculating the amount of glycopeptide formed using the following equation, as previously described ([43]): [GP]=PeakareaGP/PeakareaP+PeakareaGP×[P]
[GP] is the concentration of glycopeptide, Peak areaGP/P is the area under the curves measured for the glycopeptide or peptide, respectively, and [P] is the concentration of peptide at the start of the reaction. […] Unless specified otherwise, turnover rates were determined from the initial rates of reaction by taking into account the enzyme concentration in the reaction. […]

Assay [2] concerns the target T1, OST3 complex. As to the kind of experiment: Peptide competition assay (unlabeled peptide vs TAMRA-DANYTK). It counts as biochemical. As to conditions: 0.4 μM purified OST3 complex, 150 μM LLO C20, 25 μM TAMRA-DANYTK, 25 μM unlabeled competitor peptide, 30 min, relative to control without competitor. Here is the method: Figure 2 In vitro glycosylation assay for OST activity and peptide sequence preferences.A, schematic representation of the in vitro reaction setup for yeast OST activity. The peptide substrate containing the glycosylation sequon N-X-(S/T) is labeled with the TAMRA fluorophore at the N-terminus. Incubation with OST, synthetic LLO, and a divalent metal ion (Mn^2+preferred) results in the transfer of the sugar moiety (two GlcNAcs, blue squares) from the LLO to the fluorescently labeled peptide, yielding a glycopeptide product. […] The glycopeptide elutes earlier than the peptide and amounts of glycopeptide are quantified at different reaction time points by peak integration. C, quantification of kinetic parameters for synthetic peptide TAMRA-DANYTK. […] Glycopeptide product was measured by UPLC and turnover rates were determined by linear regression of the initial phase of the reaction and taking into account the enzyme concentration. […] E, quantification of kinetic parameters for synthetic peptide TAMRA-YANATS. […] Turnover rates were determined as in C. […]
(§3) Samples were analyzed by reverse-phase chromatography using a UPLC Dionex UltiMate 3000 with an Accucore 150-C18 100 × 2.1 mm 2.6 μm column (Thermo Fisher Scientific). […]

For assay [3], the system named is yeast OST3 complex. As to the kind of experiment: Inhibition of OST activity by nonhydrolyzable LLO analogs. It counts as biochemical, Saccharomyces cerevisiae. As to conditions: for IC50: 0.1 μM purified OST3 complex, 25 μM TAMRA-YANATS, 50 μM LLO C20, inhibitor 2.5–2000 μM (Ia) or 2.5–3000 μM (Ib), 30 °C, read-out: IC50 (apparent).
From the text: Figure 4 Inhibition of yeast OST activity by synthetic nonhydrolyzable LLOs in vitro.A, structure of synthetic nonhydrolyzable LLOs. Synthetic nonreactive LLOs have two GlcNAcs as the sugar moiety, followed by pyrophosphonate and lipid moieties of variable stereochemistry and length, denoted by the carbon chain length. Ia, GlcNAc2-(OH)CPP-(S)-citronellylneryl (C20); Ib, GlcNAc2-CPP-(S)-citronellylfarnesyl (C25). Note that Ia is a hydroxy-phosphonate (with an additional OH group, single diastereomer, R/S configuration unassigned), while Ib is a phosphonate without an additional hydroxyl group. Figure modified from Ramirez et al. 2017 ([42]). B, quantification of inhibition by nonhydrolyzable LLOs shown in A. Reactions were performed with 0.1 μM purified OST3 complex, 25 μM peptide TAMRA-YANATS, 50 μM LLO C20, and varying concentrations of the different synthetic inhibitory LLOs. Glycopeptide product was measured by UPLC and turnover rates were determined from the linear initial phase of the reaction. % inhibition was determined relative to a control reaction without nonhydrolyzable LLOs. […]
as §1
Reactions were performed in a total volume of 10 μl containing the specified amount of TAMRA-labeled peptide, synthetic LLO analog, 10 mM MnCl2, and purified OST after size-exclusion chromatography in purification buffer (50 mM Hepes, pH 7.5, 150 mM NaCl, 1 mM MgCl2, 1 mM MnCl2, 10% (v/v) glycerol, 0.03% (w/v) DDM, and 0.006% (w/v) CHS). The concentration of OST was calculated using the molecular weight of 280 kDa. […]
as §3

The test system of assay [4] is TbStt3A. Conditions: reported for TbStt3A, compound 34d; ref [42]; cited from earlier work. The source says:
The nonreactive LLO analogs Ia and Ib had the same disaccharide and lipid structures as the reactive LLO substrates LLO C20 and LLO C25, respectively. However, they differed from their reactive counterpar ...

Assay [5] has as its target T1, OST3 complex. As to the kind of experiment: Turnover of synthetic TAMRA-labeled peptides. It counts as biochemical. As to conditions: 0.5 µM OST3 complex, 20 µM peptide. As to the method:
TAMRA-labeled peptides with 5-TAMRA at the N-terminus and an amide group at the C-terminus were synthesized by WatsonBio Sciences. Unlabeled peptides (Table S1) were synthesized by Genscript Corp. and were designed so that the asparagine of the glycosylation sequon was in the middle (except for Peptide 8). Lyophilized peptides were dissolved in dimethyl sulfoxide (DMSO), unless specified otherwise, to a 3 mM stock solution and further diluted in ddH2O for reactions.
Reactions were performed in a total volume of 10 μl containing the specified amount of TAMRA-labeled peptide, synthetic LLO analog, 10 mM MnCl2, and purified OST after size-exclusion chromatography in purification buffer (50 mM Hepes, pH 7.5, 150 mM NaCl, 1 mM MgCl2, 1 mM MnCl2, 10% (v/v) glycerol, 0.03% (w/v) DDM, and 0.006% (w/v) CHS). The concentration of OST was calculated using the molecular weight of 280 kDa. The reaction mixture was preincubated at 30 °C for 5 min before adding the peptide to start the reaction that proceeded at 30 °C. Time points were taken such that the reaction was in the linear phase. At each time point, 1 μl reaction mixture was taken and the reaction was stopped by dilution in stop solution (0.1% FA in 10% ACN, 10 mM KPO4 pH 8.0) such that the final peptide concentration was 2 μM.
as §2
The UPLC profiles were analyzed by integrating the peaks corresponding to the glycopeptide and peptide using Chromeleon 7 (Dionex) and calculating the amount of glycopeptide formed using the following equation, as previously described ([43]): [GP]=PeakareaGP/PeakareaP+PeakareaGP×[P] […]
Supp. Table 2. Turnover of synthetic TAMRA-labeled peptides
Peptide Glycopeptide Turnover after 5 min Relative turnover […]
TAMRA, tetramethylrhodamine
Turnover of TAMRA-labeled peptides after 5 min was determined using 0.5 µM OST3 complex, 20 µM indicated peptide and 150 µM LLO C20. Relative turnover compared to TAMRA-DANYTK is given by defining TAMRA-DANYTK turnover as 100 %.

Assay [6] concerns the target Ost3p-containing yeast oligosaccharyltransferase complex (S. cerevisiae) (UniProt P41543).
Assay [7] has as its target Ost6p-containing yeast oligosaccharyltransferase complex (S. cerevisiae) (UniProt P41543).

The star is where a group is joined. 5‑TAMRA = CN(C)c1ccc2c(-c3ccc(C(=O)*)cc3C(=O)[O-])c3ccc(N(C)C)cc3[o+]c2c1

For `CC(=O)NC1C(OC2C(CO)OC(OP(=O)(O)OP(=O)(O)OCCC(C)CCC=C(C)C)C(NC(C)=O)C2O)OC(CO)C(O)C1O` (stereo not drawn) [LLO C10], in assay [1], the “activity as LLO substrate” value was “no detectable activity”.
With ADTYANATSDVL [Peptide 5], the “% inhibition of TAMRA-DANYTK glycopeptide formation” value in assay [2] came out at 50%.
In the case of “GlcNAc2-(OH)CPP-(S)-citronellylneryl [Ia]”, the IC50 (usually the point on the concentration scale where inhibition reaches its midpoint) in assay [3] amounted to 44 µM. In addition, in assay [3] (OST3 complex), the “relative inhibitory potency, in words” value is recorded as “more potent inhibitor of the yeast OST3 complex than Ib”.
For “GlcNAc2-CPP-(S)-citronellylfarnesyl [Ib]”, the results for the IC50 in assay [3] and in assay [4] were 198 µM and 26 ± 3 µM, respectively.
For “TAMRA-ADTYANATSDVL [TAMRA-labeled Peptide 5]”, the “Turnover after 5 min” value in assay [5] (150 µM LLO C20) is listed as 10%. For the same molecule, the Glycopeptide detected entry in assay [5] (150 µM LLO C20, 5 min) is “Yes”. The same molecule came in with a Relative turnover in assay [5] (TAMRA-DANYTK turnover defined as 100 %, 5 min, 150 µM LLO C20) of 167%.

B1: TAMRA-DANYTK-NH2 (peptide)
peptide: {5‑TAMRA}-DANYTK-NH2
SMILES: C[C@H](NC(=O)[C@H](CC(=O)O)NC(=O)c1ccc(-c2c3ccc(N(C)C)cc3[o+]c3cc(N(C)C)ccc23)c(C(=O)[O-])c1)C(=O)N[C@@H](CC(N)=O)C(=O)N[C@@H](Cc1ccc(O)cc1)C(=O)N[C@H](C(=O)N[C@@H](CCCCN)C(N)=O)[C@@H](C)O
B1: the apparent KM of the peptide in the in vitro glycosylation assay (Michaelis-Menten fit; about 1 μM OST3 complex, 150 μM LLO C20, 10-400 μM peptide, 30 °C) in assay [6] was 201 µM.

B2: TAMRA-YANATS (peptide)
peptide: {5‑TAMRA}-YANATS-NH2
SMILES: C[C@H](NC(=O)[C@H](Cc1ccc(O)cc1)NC(=O)c1ccc(-c2c3ccc(N(C)C)cc3[o+]c3cc(N(C)C)ccc23)c(C(=O)[O-])c1)C(=O)N[C@@H](CC(N)=O)C(=O)N[C@@H](C)C(=O)N[C@H](C(=O)N[C@@H](CO)C(N)=O)[C@@H](C)O
As to B2, the apparent KM of the peptide in the in vitro glycosylation assay (Michaelis-Menten fit; 0.1 μM OST3 complex, 100 μM LLO C20, 10-500 μM peptide, 30 °C) in assay [6] came to 55.6 µM. Besides, the apparent KM of the peptide in the in vitro glycosylation assay (Michaelis-Menten fit; 0.1 μM OST6 complex, 100 μM LLO C20, varying peptide, 30 °C) in assay [7] worked out at 44.8 µM.
